Read-outs that look alike come from different tables or passages of the source.
Description: 350 mg of potassium bicarbonate equivalent to single dosage unit was added in beaker 1 while of potassium bicarbonate equivalent to three dosage units were added in beaker 2.

For `O=C([O-])O.[K+]` [potassium bicarbonate], the “pH of media after addition” value (beaker 1: 350 mg (single dosage unit) in 900 ml 0.01N HCl (initial pH 1.90)) was 2.30 and the “pH of media after addition” value (beaker 2: equivalent to three dosage units in 900 ml 0.01N HCl (initial pH 1.90)) was 6.15.

Reference: patent US20170157055A1, “PHAR[…] DETERRENT COMPOSITION” (priority 2014, published 2017)
